# Measurements taken from patent US11707462B2, “Checkpoint kinase 1 (CHK1) inhibitors and uses thereof” (Boundless Bio, Inc., priority 2021, dated 2023).
# How the values were obtained:
# [1] = biological target: T1, Full-length human Chk1 protein (Homo sapiens, UniProt O14757); assay: Kinase HTRF biochemical assay (HTRF KinEASE), Chk1 enzyme activity; conditions: full-length human Chk1, ATP 1 mM, 60 minutes at room temperature
# T1 construct: purchased Carna Biosciences, Inc. 02-117
# T1 sequence (O14757 1-476): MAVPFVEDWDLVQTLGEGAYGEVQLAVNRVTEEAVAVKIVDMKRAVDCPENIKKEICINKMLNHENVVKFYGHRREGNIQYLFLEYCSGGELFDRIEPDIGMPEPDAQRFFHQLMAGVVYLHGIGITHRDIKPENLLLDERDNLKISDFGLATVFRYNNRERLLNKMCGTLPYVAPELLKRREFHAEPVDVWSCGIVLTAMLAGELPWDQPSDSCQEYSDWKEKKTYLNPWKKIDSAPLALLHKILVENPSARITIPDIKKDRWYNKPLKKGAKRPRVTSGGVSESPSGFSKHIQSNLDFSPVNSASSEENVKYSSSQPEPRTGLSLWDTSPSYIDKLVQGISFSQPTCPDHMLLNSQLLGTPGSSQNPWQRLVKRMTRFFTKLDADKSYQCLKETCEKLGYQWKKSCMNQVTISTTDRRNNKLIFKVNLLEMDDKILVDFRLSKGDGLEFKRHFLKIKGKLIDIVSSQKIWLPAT
# Procedure, shortened: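 Full-length human Chk1 (0.012 ng/μL) in buffer with 5 mM MgCl2 and 1 mM DTT, preincubated with compound 10 min at room temperature; reaction with 120 nM biotinylated STK substrate 1 and 1 mM ATP for 60 min at room temperature. HTRF detection via cryptate antibody/streptavidin-XL665; IC50 from 10-point duplicate curves.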
# p-CHK1 (Ser345) = assay: AlphaLISA SureFire Ultra p-CHK1 (Ser345) cellular assay in HT29 cells; assay type: cell-based; conditions: Homo sapiens, HT-29, 16 h at 37° C.
# Procedure, shortened: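 HT29 cells treated with compounds over a 10-point, 3-fold dilution series for 16 h at 37° C., then lysed; p-CHK1 (Ser345) in lysates measured by AlphaLISA SureFire Ultra (acceptor and donor steps 1 h each at room temperature). IC50 from dose-response curve fits.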
IC50 [1] [µM],IC50 (p-CHK1 (Ser345)) [µM],SMILES
≤ 0.01,≤ 0.05,"N#Cc1cnc(Nc2cc(-c3nc(C4CC4)ccc3O[C@@H]3CC[C@H](N)C3)[nH]n2)cn1 [Example 4-5, 5-((5-(3-(((1R,3S)-3-aminocyclopentyl)oxy)-6-cyclopropylpyridin-2-yl)-1H-pyrazol-3-yl)amino)pyrazine-2-carbonitrile]"
≤ 0.01,≤ 0.05,"Cc1cc(F)c(-c2cc(Nc3cnc(C#N)cn3)n[nH]2)c(O[C@@H]2CC[C@@H](N)C2)c1 [Example 5-1, 5-((5-(2-(((1R,3R)-3-aminocyclopentyl)oxy)-6-fluoro-4-methylphenyl)-1H-pyrazol-3-yl)amino)pyrazine-2-carbonitrile]"
0.01 to 0.1,0.1 to 0.5,"Cc1cc(F)c(-c2cc(Nc3cnc(C#N)cn3)n[nH]2)c(O[C@@H]2CC[C@H](N)C2)c1 [Example 5-2, 5-((5-(2-(((1R,3S)-3-aminocyclopentyl)oxy)-6-fluoro-4-methylphenyl)-1H-pyrazol-3-yl)amino)pyrazine-2-carbonitrile]"
≤ 0.01,≤ 0.05,"CN[C@@H]1CC[C@@H](Oc2cc(C)cc(F)c2-c2cc(Nc3cnc(C#N)cn3)n[nH]2)C1 [Example 5-3, 5-((5-(2-fluoro-4-methyl-6-(((1R,3R)-3-(methylamino)cyclopentyl)oxy)phenyl)-1H-pyrazol-3-yl)amino)pyrazine-2-carbonitrile]"
0.1 to 0.5,> 1,"CN(C)[C@@H]1CC[C@@H](Oc2cccc(F)c2-c2cc(Nc3cnc(C#N)cn3)n[nH]2)C1 [Example 5-4, 5-((5-(2-(((1R,3R)-3-(dimethylamino)cyclopentyl)oxy)-6-fluorophenyl)-1H-pyrazol-3-yl)amino)pyrazine-2-carbonitrile]"
